Laboratory results: patent publication US20060009425A1, “Oral formulations of paricalcitol” (priority 2004, published 2006)
Where two headings read alike, the source gives them in different places.

Legend:
[1] = Single and multiple dose pharmacokinetics, 4 μg QD vs 8 μg TIW, subjects in general good health (Example 5); assay type: in vivo, human; conditions: for AUC(0-inf) / Cmax / Tmax / half-life / AUC(0-t): human, plasma, oral; for half-life: harmonic mean ± pseudo-standard deviation
Method: Methodology: This Phase I, multiple-dose, open-label, randomized study was conducted according to an […], crossover design. Subjects were randomized into two sequence groups of equal size of Regimens A and B. Subjects received the following regimens: • Regimen A: One 4 μg paricalcitol soft elastic capsule on Study Day 1 and one 4 μg paricalcitol capsule QD for 11 doses on Study Days 3 through 13. • Regimen B: Two 4 μg paricalcitol soft elastic capsules three times a week (8 μg TIW) for 6 doses on Study Days 1, 3, 5, 8, 10, and 12.
The paricalcitol dose was administered at approximately 0700, 30 minutes after breakfast was served on the dosing days of each period. Each dose was administered orally with 240 mL of water. A washout interval of at least 7 days separated the dose of period 1 and dose of period 2.
Seven (7) mL blood samples (to yield at least 3 mL of plasma) were obtained by venipuncture for paricalcitol plasma concentration into appropriately labeled EDTA-containing collection tubes. The blood sampling was as shown below in Table 10.
For Regimen B, a blood sample was collected 48 hours after the Study Day 5 dose (Study Day 7) and immediately prior to dosing (0 hour) on Study Day 10.
Plasma concentrations of paricalcitol were determined using a validated liquid chromatography-tandem mass spectrometric assay method at Abbott Laboratories, Abbott Park, Ill. (a proprietary method of Abbott Laboratories). The lower limit of quantification (abbreviated as “LOQ”) of paricalcitol was 0.02 ng/mL using a 0.6 mL plasma sample.
Pharmacokinetics: The following pharmacokinetic parameter values were determined using standard non-compartmental methods: maximum observed plasma concentration (Cmax), time to Cmax(Tmax), terminal phase elimination rate constant (β), terminal elimination half-life (t1/2), area under the plasma concentration vs. time curve extrapolated to infinite time (AUC0-∞) following the first dose and area under the plasma concentration vs. time curve over the dose interval at steady state (AUC0-τ; also referred to as AUC0-48 or AUC0-24 as appropriate). Accumulation index (AI) and degree of fluctuation (DFL) were also evaluated at steady state.
Statistical Methods: An analysis of variance (ANOVA) was performed to compare single- and multiple-dose pharmacokinetics of paricalcitol. The model included effects for sequence, subject nested within sequence, day (i.e., first dose or last dose), and sequence by day interaction. The effect for subject was random, while all other effects were fixed. The analyzed variables include Tmax, β, and the logarithms of AUC and Cmax. The AUC value for the single dose was AUC0-∞, while the AUC for the multiple dose was AUC0-24. The trough concentrations were analyzed using the same ANOVA model described above to address the issue of steady state attainment for the QD regimen.
The logarithmic transformation was also used for AUC. The model had effects for sequence, subject nested within sequence, period and regimen. The effect for subject was random, while all other effects were fixed. […] Study Day 1 Tmax, β, dose-normalized Cmax and AUC0-∞ from Regimen A and Regimen B were analyzed using the same ANOVA model. […] This same model again was used to compare Regimen A and Regimen B with respect to AI values.

[2] = Bioavailability of capsule vs intravenous formulation, end-stage CKD on continuous peritoneal dialysis (Example 9); assay type: in vivo; conditions: human, plasma, 0.24 μg/kg; for half-life: CPD, read-out: harmonic mean of the terminal elimination half-life (converted)
Method: Methodology: This was a Phase I, open-label, randomized, single-dose, two-period, crossover, nonfasting study. Subjects were randomized into two sequence groups of
Formulations A and B. The two nonfasting study administrations were: […]
The strengths of the capsule formulations were 0.5, 1, 2 or 4 μg.
The intravenous formulation contained 2-10 micrograms/milliliter of paricalcitol, 30% (v/v) propylene glycol, 20% (v/v) ethanol and 50% (v/v) water.
Both formulations were administered immediately after CPD exchange in the morning, 30 minutes after breakfast was served. Phosphate binders, commonly used in the management of end-stage renal disease, were withheld 8 hours prior to and 2 hours after the drug administration. A washout interval of at least 7 days separated the doses of the two study periods.
Plasma concentrations of paricalcitol were determined using a validated HPLC-tandem mass spectrometric assay method at Abbott Laboratories, Abbott Park, Ill. The lower limit of quantitation of paricalcitol was 0.02 ng/mL using 0.6 mL of plasma.
Pharmacokinetic: The pharmacokinetic parameter values of paricalcitol were estimated using noncompartmental methods. These included: Cmax, t1/2, AUC0-t, AUC0-∞, CL, CL/F, Tmax, Vdβ and Vdβ/F, as described in the last example.
Statistical Methods: An analysis of variance (ANOVA) was performed for β and the logarithms of Cmax, AUC0-t and AUC0-∞. […] The number and percentage of subjects reporting adverse events were tabulated by COSTART term and body system. Laboratory values outside the reference ranges were flagged and evaluated for clinical significance.

[3] = Regimen A 4 μg QD, Study Day 12
[4] = Regimen A 4 μg QD, Study Day 13
[5] = Regimen B 8 μg TIW, Study Day 1
[6] = Regimen B 8 μg TIW, Study Day 12 and 13
[7] = 4 ug, Regimen A 4 μg QD, Study Day 1
[8] = 4 ug, Regimen A 4 μg QD, Study Day 12
[9] = 4 ug, Regimen A 4 μg QD, Study Day 13
[10] = 8 ug, Regimen B 8 μg TIW, Study Day 1
[11] = 8 ug, Regimen B 8 μg TIW, Study Day 12 and 13

C[C@H](/C=C/[C@H](C)C(C)(C)O)[C@H]1CC[C@H]2/C(=C/C=C3C[C@@H](O)C[C@H](O)C3)CCC[C@]12C [Paricalcitol, 19-nor-1α,3β,25-trihydroxy-9,10-secoergosta-5(Z); 7(E),22(E)-triene]
steady state reached by ([1]; 4 μg QD or 8 μg TIW): ≤ 7 Study Day
CL/F ([1]; Regimen A 4 μg QD, Study Day 1): 3.95 ± 1.19^Φ L/h
Vdβ/F ([1]; Regimen A 4 μg QD, Study Day 1): 38.9 ± 18.7^Φ L
AI [1, 3]: 1.759 ± 1.829
CL/F [1, 3]: 4.33 ± 2.08 L/h
Cmin [1, 3]: 0.005 ± 0.010 ng/mL
DFL [1, 3]: 2.584 ± 0.889
Vdβ/F [1, 3]: 44.9 ± 23.0^ε L
AI [1, 4]: 1.483 ± 1.442
AUC/Dose (AUC0-24/Dose) [1, 4]: 0.226 ± 0.049 ng·h/mL/µg
CL/F [1, 4]: 4.65 ± 1.16 L/h
Cmin [1, 4]: 0.001 ± 0.005 ng/mL
DFL [1, 4]: 2.761 ± 0.761
Vdβ/F [1, 4]: 43.7 ± 17.9^ε L
CL/F [1, 5]: 3.65 ± 1.61 L/h
Vdβ/F [1, 5]: 41.0 ± 12.7 L
AI [1, 6]: 1.000 ± 0.312
CL/F [1, 6]: 3.79 ± 1.07 L/h
Cmin [1, 6]: 0.000 ± 0.000 ng/mL
DFL [1, 6]: 4.637 ± 1.397
Vdβ/F [1, 6]: 42.1 ± 28.7^δ L
AUC(0-inf) [1, 7]: 1.11 ± 0.342 ng·h/mL
Cmax [1, 7]: 0.1 ± 0.033 ng/mL
Tmax [1, 7]: 4.8 ± 2.8 h
half-life [1, 7]: 6.2 ± 2.1 h
AUC(0-t) ([1]; 4 ug, Regimen A 4 μg QD, Study Day 1, read-out: AUC0-t): 0.701 ± 0.339 ng·h/mL
Cmax [1, 8]: 0.112 ± 0.031 ng/mL
Tmax [1, 8]: 4.4 ± 2.6 h
half-life [1, 8]: 6.8 ± 3.1 h
AUC(0-t) ([1]; 4 ug, Regimen A 4 μg QD, Study Day 12, read-out: AUC0-τ (AUC0-24)): 1.07 ± 0.359 ng·h/mL
Cmax [1, 9]: 0.105 ± 0.035 ng/mL
Tmax [1, 9]: 4.5 ± 1.6 h
half-life [1, 9]: 5.8 ± 2.5 h
AUC(0-t) ([1]; 4 ug, Regimen A 4 μg QD, Study Day 13, read-out: AUC0-τ (AUC0-24)): 0.904 ± 0.196 ng·h/mL
AUC(0-inf) [1, 10]: 2.55 ± 1.08 ng·h/mL
Cmax [1, 10]: 0.2 ± 0.062 ng/mL
Tmax [1, 10]: 4.4 ± 1.4 h
half-life [1, 10]: 7.3 ± 3.2 h
AUC(0-t) ([1]; 8 ug, Regimen B 8 μg TIW, Study Day 1, read-out: AUC0-t): 2.05 ± 0.881 ng·h/mL
Cmax [1, 11]: 0.217 ± 0.077 ng/mL
Tmax [1, 11]: 4.3 ± 2.6 h
half-life [1, 11]: 6.8 ± 2.2 h
AUC(0-t) ([1]; 8 ug, Regimen B 8 μg TIW, Study Day 12 and 13, read-out: AUC0-τ (AUC0-48)): 2.26 ± 0.566 ng·h/mL
dose proportionality of pharmacokinetics ([1]; single dose and steady state over the studied dose range): dose proportional
half-life ([2]; following intravenous administration): ~15 h
half-life ([2]; following oral administration): ~18 h
bioavailability ([2]; single oral dose of capsule formulation, end-stage renal disease on CPD, read-out: absolute bioavailability): 86.1%
